Reference: patent US9486544B2, “Manganese chelates and their use as contrast agents in magnetic resonance imaging (MRI)” (GE Healthcare AS, priority 2009, dated 2016)
Like-named read-outs stand apart in the source and are kept apart here.

Columns and labels:
Format in all cases: physicochemical
[1] = Relaxivity analysis in water; conditions: degassed Millipore water, 0.05 to 1 mM complex
Protocol: (§1) The relaxivity measurements were performed with a range of 0.05 to 1 mM complex solutions on a Bruker Minispec PC 120b-NA 770, at 20 MHz or a Bruker Minispec Mq 60m at 60 MHz and 37° C. The solutions were obtained by dissolving the appropriate amount of chelate in degassed Millipore water or human serum.

[2] = Kinetic stability: exchange reaction with Zn2+ in acetate buffer, monitored by relaxivity; conditions: acetate buffer with Zn2+ challenge, acetate buffer 10 mM, 25° C., chelate approx. 0.5 mM, read-out: Dissociation Half life t1/2
Protocol: The kinetic stability of manganous chelates was characterized by the rates of exchange reaction with Zn^2+, in acetate buffer (10 mM) set to various pH. The increase of free manganous ions was monitored using a Bruker Minispec PC 120b-NA 770, at 20 MHz and 25° C. The total ionic strength was adjusted to 0.5M with KCl. The chelate concentration was approximately 0.5 mM for all measurements.
The change in concentration of chelated manganese, upon challenge with zinc ions, was monitored spectroscopically. When zinc displaces a manganous ion a net increase in relaxivity was observed as the free manganous ion has a relaxivity of ˜10 mM^−1s^−1, whereas the studied manganese chelates have a lower relaxivity.
The pseudo first-order rate constants (kobs) were calculated by fitting the relaxivity data to the following equation: […] in which At, A0, and Ae are the relaxivity values at time t, the start of the reaction, and at equilibrium, respectively. The dissociation half life was derived from kobs.

[3] = Water exchange measurements (variable-temperature 17O NMR); conditions: TRIS 0.05 M pH 7.4, 6 to 15 mM complex
Protocol: Water Exchange Measurements
The water exchange measurements were performed with 6 to 15 mM complex solutions. The solutions were obtained by dissolving the appropriate amount of complex in 0.6 mL of buffer solution (TRIS, 0.05 M, pH 7.4 in degassed Millipore water at ca. 3 atom % ^17O-enrichment); Variable-temperature Fourier transform ^17O NMR spectra were recorded at a frequency of 40.7 MHz on a Varian Unity 300 MHz spectrometer. The temperatures were measured using methanol and ethylene glycol standards. The temperature dependence of the ^17O line broadening for each system was measured over a temperature range from 273.7 to 356.1 K. Each temperature was calibrated using a methanol or ethylene glycol standard.

[4] = Relaxivity analysis in human serum; conditions: 0.05 to 1 mM complex
Protocol: as §1

| SMILES | Relaxivity Water @ 20 MHz, 37° C. [1] | half-life at 0.5 mM ([2]; pH 4.6, pH 4.6, [Zn] 10 mM) | half-life at 0.5 mM ([2]; pH 5, pH 5.0, [Zn] 10 mM) | half-life at 0.5 mM ([2]; pH 5.2, pH 5.2, [Zn] 10 mM) | half-life at 0.5 mM ([2]; pH 5.2, pH 5.2, [Zn] 20 mM) | half-life at 0.5 mM ([2]; pH 5.4, pH 5.4, [Zn] 10 mM) | half-life at 0.5 mM ([2]; pH 5.6, pH 5.6, [Zn] 10 mM) | half-life at 0.5 mM ([2]; pH 5.6, pH 5.6, [Zn] 20 mM) | Water residence time [3] | Relaxivity Human Serum @ 60 MHz, 37° C. [4] |
| --- | --- | --- | --- | --- | --- | --- | --- | --- | --- | --- |
| O=C(O)CN1CCN2CC(=O)[O][Mn][O]C(=O)CN(CC1)Cc1cccc(n1)C2 [Compound disclosed in US5334371, reference compound] | 1.3 mM⁻¹ s⁻¹ |  |  |  |  |  |  |  |  |  |
| O=C1CN2CCNCCN(CC(=O)[O][Mn][O]1)Cc1cccc(n1)C2 [Compound disclosed in US5334371, reference compound] |  | 3 min | 6 min | 9 min | 10 min | 15 min | 22 min | 23 min |  |  |
| CN1CCN2CC(=O)[O][Mn][O]C(=O)CN(CC1)Cc1cccc(n1)C2 [Example 1, manganese(II) complex of 3,6,9,15-tetraaza-3,9-bis-(carboxymethyl)-6-methyl-bicyclo[9.3.1]pentadeca-1(14),11(15),12-triene] | 2.4 mM⁻¹ s⁻¹ | 10 min | 21 min | 30 min | 37 min | 44 min | 72 min | 77 min | 16 ns | 4.6 mM⁻¹ s⁻¹ |
| CN1CCN2CC(=O)[O][Mn][O]C(=O)CN(CC1)Cc1cc(NC(=O)c3cc(C(=O)Nc4cc5nc(c4)CN4CCN(C)CCN(CC(=O)[O][Mn][O]C(=O)C4)C5)cc(C(=O)Nc4cc5nc(c4)CN4CCN(C)CCN(CC(=O)[O][Mn][O]C(=O)C4)C5)c3)cc(n1)C2 [Example 2, manganese(II) complex of N1,N3,N5-tris[3,6,9,15-tetraaza-3,9-bis-(carbonylmethyl)-6-methyl-bicyclo[9.3.1]pentadeca-13-trienyl]benzene-1,3,5-tricarboxamide] | 3.8 mM⁻¹ s⁻¹ |  |  |  |  |  |  |  | 14 ns | 10.5 mM⁻¹ s⁻¹ |
| CN1CCN2CC(=O)[O][Mn][O]C(=O)CN(CC1)Cc1cc(NC(=O)c3ccccc3)cc(n1)C2 [Example 6, manganese complex of N,13-Benzamide-3,6,9,15-tetraaza-3,9-bis-(carboxymethyl)-6-methyl-bicyclo[9.3.1]pentadeca-1(14),11(15),12-triene] |  |  |  |  |  |  |  |  |  | 8.8 mM⁻¹ s⁻¹ |
